Assay results as given in PubChem BioAssay AID248 (DTP/NCI, 2004).
Toxic doses and inconclusive results are not listed. Cut-off read from the data, not from the text of the source: active = T/C of 150% or more; inactive = T/C below 125%.

Tested on: L1210 leukemia ip in BDF1 mice, survival T/C
Assay: NCI In Vivo Anticancer Drug Screen. Data for tumor model L1210 Leukemia (intraperitoneal) in B6D2F1 (BDF1) mice
Settings: endpoint: mean survival time, higher = longer survival
Procedure, shortened: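 In this screen, tumor-bearing mice given compound are compared to those given vehicle, and their survival values are reported as a treated-to-control quotient.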

[1] = dose: 100.0 mg/kg/injection, schedule: Q01DX009 (ip), vehicle: saline with Tween-80
[2] = dose: 200.0 mg/kg/injection, schedule: Q01DX009 (ip), vehicle: saline with Tween-80
[3] = dose: 400.0 mg/kg/injection, schedule: Q01DX009 (ip), vehicle: saline with Tween-80
[4] = dose: 100.0 mg/kg/injection, schedule: Q01DX001 (ip), vehicle: carboxymethylcellulose (CMC)
[5] = dose: 200.0 mg/kg/injection, schedule: Q01DX001 (ip), vehicle: carboxymethylcellulose (CMC)
[6] = dose: 400.0 mg/kg/injection, schedule: Q01DX001 (ip), vehicle: carboxymethylcellulose (CMC)
[7] = dose: 100.0 mg/kg/injection, schedule: Q04DX003 (ip), vehicle: Klucel (hydroxypropylcellulose) (HPC)
[8] = dose: 200.0 mg/kg/injection, schedule: Q04DX003 (ip), vehicle: Klucel (hydroxypropylcellulose) (HPC)
[9] = dose: 400.0 mg/kg/injection, schedule: Q04DX003 (ip), vehicle: Klucel (hydroxypropylcellulose) (HPC)
[10] = dose: 100.0 mg/kg/injection, schedule: Q04DX003 (ip), vehicle: saline with Tween-80
[11] = dose: 200.0 mg/kg/injection, schedule: Q04DX003 (ip), vehicle: saline with Tween-80
[12] = dose: 100.0 mg/kg/injection, schedule: Q01DX001 (ip), vehicle: saline
[13] = dose: 200.0 mg/kg/injection, schedule: Q01DX001 (ip), vehicle: saline
[14] = dose: 400.0 mg/kg/injection, schedule: Q01DX001 (ip), vehicle: saline
[15] = dose: 100.0 mg/kg/injection, schedule: Q04DX002 (ip), vehicle: Klucel (hydroxypropylcellulose) (HPC)
[16] = dose: 100.0 mg/kg/injection, schedule: Q04DX003 (ip), vehicle: saline
[17] = dose: 200.0 mg/kg/injection, schedule: Q04DX002 (ip), vehicle: Klucel (hydroxypropylcellulose) (HPC)
[18] = dose: 200.0 mg/kg/injection, schedule: Q04DX003 (ip), vehicle: saline
[19] = dose: 400.0 mg/kg/injection, schedule: Q04DX003 (ip), vehicle: saline

Measured: T/C

CO/C([O-])=N/S(=O)(=O)n1cc[n+](C)c1
inactive: dose: 75.0 mg/kg/injection, schedule: Q01DX009 (ip), vehicle: Klucel (hydroxypropylcellulose) (HPC) 98 % of control | dose: 150.0 mg/kg/injection, schedule: Q01DX009 (ip), vehicle: Klucel (hydroxypropylcellulose) (HPC) 86 % of control | dose: 300.0 mg/kg/injection, schedule: Q01DX009 (ip), vehicle: Klucel (hydroxypropylcellulose) (HPC) 95 % of control

O=C(Nc1ccccc1)c1ccccc1C(O)(c1ccccc1)c1ccc(Cl)cc1 (configuration not stated)
inactive: [1] 92 % of control | [2] 90 % of control | [3] 93 % of control

COc1ccccc1-c1ccc([N+](=O)[O-])cc1[N+](=O)[O-]
inactive: [4] 100 % of control | [5] 105 % of control | [6] 102 % of control

COc1cccc(OC)c1OS(=O)(=O)c1ccc(COc2ccc([N+](=O)[O-])cc2Cl)cc1
inactive: [7] 98 % of control | [8] 90 % of control | [9] 90 % of control

Nc1ccc(Br)cc1
inactive: [1] 100 % of control | [2] 95 % of control | [3] 99 % of control

Clc1ccc(P(c2ccc(Cl)cc2)c2ccc(Cl)cc2)cc1
inactive: [1] 87 % of control | [10] 98 % of control | [11] 95 % of control | dose: 400.0 mg/kg/injection, schedule: Q04DX003 (ip), vehicle: saline with Tween-80 97 % of control

COP1(=O)CC=C(C)C1 (configuration not stated)
inactive: [12] 98 % of control | [13] 98 % of control | [14] 106 % of control

Cc1cc(N(C)C)ccc1N=Nc1ccccc1
inactive: dose: 50.0 mg/kg/injection, schedule: Q01DX001 (ip), vehicle: carboxymethylcellulose (CMC) 102 % of control | [4] 102 % of control | [5] 107 % of control | [6] 96 % of control

COc1nc(N)c(C#N)c(C#N)c1C#N
inactive: dose: 15.0 mg/kg/injection, schedule: Q01DX001 (ip), vehicle: carboxymethylcellulose (CMC) 95 % of control | dose: 30.0 mg/kg/injection, schedule: Q01DX001 (ip), vehicle: carboxymethylcellulose (CMC) 95 % of control

CC(C)C(C(=O)c1ccccc1)C(c1ccccc1)c1ccccc1 (configuration not stated)
inactive: dose: 100.0 mg/kg/injection, schedule: Q01DX009 (ip), vehicle: other 103 % of control | dose: 200.0 mg/kg/injection, schedule: Q01DX009 (ip), vehicle: other 90 % of control | dose: 400.0 mg/kg/injection, schedule: Q01DX009 (ip), vehicle: other 103 % of control

CC(C)=CCn1c(=O)c2c(ncn2C)n(C)c1=O
inactive: [10] 98 % of control | [11] 98 % of control

OCCNc1nn2ccnc2c2ccccc12
inactive: dose: 100.0 mg/kg/injection, schedule: Q04DX002 (ip), vehicle: saline with Tween-80 92 % of control | dose: 200.0 mg/kg/injection, schedule: Q04DX002 (ip), vehicle: saline with Tween-80 92 % of control | dose: 400.0 mg/kg/injection, schedule: Q04DX002 (ip), vehicle: saline with Tween-80 92 % of control

Cc1nc(N)[nH]c(=O)c1CCCN=Cc1ccc([N+](=O)[O-])cc1
inactive: dose: 18.75 mg/kg/injection, schedule: Q01DX001 (ip), vehicle: Klucel (hydroxypropylcellulose) (HPC) 95 % of control | dose: 37.5 mg/kg/injection, schedule: Q01DX001 (ip), vehicle: Klucel (hydroxypropylcellulose) (HPC) 101 % of control | dose: 75.0 mg/kg/injection, schedule: Q01DX001 (ip), vehicle: Klucel (hydroxypropylcellulose) (HPC) 101 % of control

O=C(CS)NNC(=O)CS
inactive: [15] 93 % of control | [16] 104 % of control | [17] 96 % of control | [18] 110 % of control | dose: 400.0 mg/kg/injection, schedule: Q04DX002 (ip), vehicle: Klucel (hydroxypropylcellulose) (HPC) 104 % of control | [19] 86 % of control

COc1cc2c(cc1OC)C1Cc3ccc(OC)c(OC)c3CN1CC2 (configuration not stated)
inactive: dose: 50.0 mg/kg/injection, schedule: Q04DX003 (ip), vehicle: saline with Tween-80 86 % of control | [15] 87 % of control | [10] 116 % of control | [17] 103 % of control | [11] 94 % of control

CCCCNC(N)=O
inactive: dose: 100.0 mg/kg/injection, schedule: Q04DX002 (ip), vehicle: saline 101 % of control | dose: 200.0 mg/kg/injection, schedule: Q04DX002 (ip), vehicle: saline 96 % of control | dose: 400.0 mg/kg/injection, schedule: Q04DX002 (ip), vehicle: saline 92 % of control

O=C(Nn1cn[nH]c1=S)Oc1ccccc1
inactive: [10] 103 % of control | [11] 103 % of control

Cn1cnc2c1c(=N)ncn2O
inactive: dose: 100.0 mg/kg/injection, schedule: Q01DX001 (ip), vehicle: other 103 % of control | dose: 100.0 mg/kg/injection, schedule: Q04DX003 (ip), vehicle: other 107 % of control | dose: 200.0 mg/kg/injection, schedule: Q01DX001 (ip), vehicle: other 103 % of control | dose: 200.0 mg/kg/injection, schedule: Q04DX003 (ip), vehicle: other 113 % of control | dose: 400.0 mg/kg/injection, schedule: Q01DX001 (ip), vehicle: other 103 % of control | dose: 400.0 mg/kg/injection, schedule: Q04DX003 (ip), vehicle: other 113 % of control

CCc1ccc(NC(=S)Nc2ccccc2)cc1
inactive: dose: 100.0 mg/kg/injection, schedule: Q04DX002 (ip), vehicle: other 108 % of control | dose: 200.0 mg/kg/injection, schedule: Q04DX002 (ip), vehicle: other 90 % of control

Cc1ccccc1CCC(=O)OCC(=O)c1ccc(-c2ccccc2)cc1
inactive: [12] 96 % of control | [13] 88 % of control | [14] 92 % of control

CC(C)CNS(=O)(=O)c1ccc(Cl)c([N+](=O)[O-])c1
inactive: [7] 99 % of control | [8] 97 % of control | [9] 106 % of control

O=C(CI)c1ccc[nH]1
inactive: dose: 50.0 mg/kg/injection, schedule: Q01DX001 (ip), vehicle: saline 100 % of control | [12] 100 % of control | [13] 103 % of control

NC(=O)Nc1cccc2c1-c1ccccc1C2=O
inactive: dose: 100.0 mg/kg/injection, schedule: Q04DX003 (ip), vehicle: acetone 88 % of control | dose: 400.0 mg/kg/injection, schedule: Q04DX003 (ip), vehicle: acetone 100 % of control

O=C1C=CC(=O)c2[nH]c(=O)ccc21
inactive: dose: 5.0 mg/kg/injection, schedule: Q01DX001 (ip), vehicle: saline 104 % of control | dose: 10.0 mg/kg/injection, schedule: Q01DX001 (ip), vehicle: saline 107 % of control

O=C(OCCNC(=O)N1CCOCC1)OCCNC(=O)N1CCOCC1
inactive: [16] 100 % of control | [18] 100 % of control | [19] 106 % of control

O=C(O)C1=NN(c2cc(Cl)c(S(=O)(=O)O)cc2Cl)C(=O)C1
inactive: [16] 92 % of control | [18] 100 % of control | [19] 106 % of control
